Here are results for 2 compounds from paper PMC6152678, “In Vitro Comparative Study of the Inhibitory Effects of Mangiferin and Its Aglycone Norathyriol towards UDP-Glucuronosyl Transferase (UGT) Isoforms” (Molecules : A Journal of Synthetic Chemistry and Natural …, 2017).

Each structure is given as a SMILES string.

On the set-up of data set [1]: method as in PMID 27130074. The note with it: after administration of 200 mg/kg MGF; cited from earlier work.
Another data set addresses T1, UGT1A1 (Homo sapiens, UniProt P22309).
T1 construct: purchased BD Gentest Corp. (Woburn, MA, USA); host or cells: baculovirus-infected insect cells
T1 sequence (P22309 26-533): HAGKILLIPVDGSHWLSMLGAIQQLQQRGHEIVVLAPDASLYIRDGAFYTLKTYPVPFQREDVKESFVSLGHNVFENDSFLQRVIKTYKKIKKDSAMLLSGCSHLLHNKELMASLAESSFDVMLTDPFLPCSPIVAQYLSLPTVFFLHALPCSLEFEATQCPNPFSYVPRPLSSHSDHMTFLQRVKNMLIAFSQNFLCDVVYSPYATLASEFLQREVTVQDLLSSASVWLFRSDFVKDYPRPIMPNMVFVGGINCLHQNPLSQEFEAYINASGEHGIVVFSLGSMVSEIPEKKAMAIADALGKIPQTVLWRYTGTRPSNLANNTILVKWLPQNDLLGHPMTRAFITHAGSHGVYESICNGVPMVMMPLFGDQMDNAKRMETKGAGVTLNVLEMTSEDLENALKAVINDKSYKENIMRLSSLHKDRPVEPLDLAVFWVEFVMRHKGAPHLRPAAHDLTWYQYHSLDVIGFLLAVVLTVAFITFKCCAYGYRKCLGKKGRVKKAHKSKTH
In words: Inhibition of recombinant UGT-catalyzed 4-MU glucuronidation. Format: biochemical. The settings on record: pH 7.4, probe 4-methylumbelliferone (4-MU), 110 μM, 100 μM compound, 4-MU probe substrate, negative = activation. The procedure:
(§1) Sigma-Aldrich (St Louis, MO, USA) provided the following constituents in the incubation mixture: 4-methylumbelliferone (4-MU), 4-methylumbelliferone-β-D-glucuronide (4-MUG), Tris-HCl, 7-hydroxycoumarin, and uridine-diphosphoglucuronic acid (UDPGA) (trisodium salt). All other compounds were of high-performance liquid chromatography (HPLC) grade or of the highest grade commercially available. For enzyme sources, recombinant UGT isoforms expressed in baculovirus-infected insect cells were purchased from BD Gentest Corp. (Woburn, MA, USA), including UGT1A1, 1A3, 1A6, 1A7, 1A8, 1A9, 1A10, 2B4, 2B7, 2B15, and 2B17.
(§2) 4-MU, a nonspecific probe substrate for all the UGT isoforms, was employed to investigate the inhibition of MEF and NIR towards the activity of UGT isoforms. The incubation and analytical methods have been previously described. […] MEF and NIR were dissolved in the DMSO to make a stock solution of 20 mM, and various concentrations of working solutions were prepared through dilution with DMSO. 4-MU was used as a non-selective substrate of UGTs. There was a 5-min pre-incubation step at 37 °C before the reaction was initiated by the addition of UDPGA. 4-MU and inhibitors were previously dissolved in DMSO, and the total concentration of DMSO was 1%. The reactions were continued at 37 °C for 120 min for UGT1A1, UGT1A3, UGT1A10, UGT2B4, UGT2B7, UGT2B15 and UGT2B17, 30 min for UGT1A6, UGT1A7, UGT1A8, and UGT1A9, respectively. Reactions were terminated by the addition of 100 μL acetonitrile with 7-hydroxycoumarin (100 μM) as internal standard. The incubation mixtures were then centrifuged at 12,000 r/min for 10 min. 2 μL supernatant was injected into the UPLC system for analysis. An ACQUITY UPLC System (Waters, Milford, MA, USA) equipped with UV detector was used to analyze the samples, and the separation of all the compounds were carried out using a ACQUITY UPLC® BEH C18 (2.1 × 100 mm, 1.7 μm Waters) at a flow rate of 0.2 mL/min and UV detector at 316 nm. The mobile phase was consisted of ultrapure water containing 0.5% formic acid (A) and acetonitrile (B). The following gradient condition was used: 0–3.5 min, 10–65% B; 3.5–4.0 min, 65% B; 4.0–9.0 min, 10% B. To calculate the standard curve 0.1–100 μM of 4-MUG was used through drawing the peak area ration of 4-MUG/internal standard towards the concentration range of 4-MUG. The curve was linear over this concentration range, with an r^2 value > 0.99.
(§3) The inhibition type and Kinetics were determined for the inhibition of NTR towards UGT1A3, UGT1A7 and UGT1A9. The glucuronidation velocity of 4-MU was determined at multiple concentrations of 4-MU and NTR. Dixon and Lineweaver–Burk plots were employed to determine the inhibition type, and the second plot of the slopes from the Lineweaver–Burk plot versus the compound concentrations was utilized to calculate the Ki value. The determination of IC50 was calculated using Probit analysis in SPSS11.5 (SPSS, Chicago, IL, USA). The Student’s t-test was adopted at a significance level of p < 0.05 to determine statistically significant differences among experimental groups.

The next data set deals with T2, UGT1A3 (Homo sapiens, UniProt P35503).
T2 construct: purchased BD Gentest Corp. (Woburn, MA, USA); host or cells: baculovirus-infected insect cells
T2 sequence (P35503 29-534): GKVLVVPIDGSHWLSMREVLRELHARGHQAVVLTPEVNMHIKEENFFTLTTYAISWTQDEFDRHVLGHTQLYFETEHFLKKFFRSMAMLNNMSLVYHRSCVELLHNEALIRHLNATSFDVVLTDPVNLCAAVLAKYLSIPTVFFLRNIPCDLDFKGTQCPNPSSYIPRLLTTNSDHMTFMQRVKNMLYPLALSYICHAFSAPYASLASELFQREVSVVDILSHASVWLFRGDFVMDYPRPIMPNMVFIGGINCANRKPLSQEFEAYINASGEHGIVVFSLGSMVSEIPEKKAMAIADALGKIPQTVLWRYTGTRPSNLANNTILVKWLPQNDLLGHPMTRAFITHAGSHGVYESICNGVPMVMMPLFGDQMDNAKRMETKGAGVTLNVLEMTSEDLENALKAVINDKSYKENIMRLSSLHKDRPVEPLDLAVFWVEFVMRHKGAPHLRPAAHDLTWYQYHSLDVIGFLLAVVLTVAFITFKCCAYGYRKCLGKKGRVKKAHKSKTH
The data set is described as above. It is filed as biochemical. The note with it: for inhibition at 120 min, 100 µM: human, pH 7.4, probe 4-methylumbelliferone (4-MU), 1200 μM, 100 μM compound, 4-MU probe substrate, negative = activation. How it is done:
as §1, §2, §3

Broadly, the Cmax is the maximum level reached in the sampled fluid or tissue. In general, inhibition refers to the change of the read-out against control, counted positive when it falls. By IC50 is commonly meant the point on the concentration scale where inhibition reaches its midpoint. In general, Ki refers to a measure of affinity in units of concentration, obtained from inhibition or displacement.

Consider `O=c1c2cc(O)c(O)cc2oc2cc(O)cc(O)c12` [NTR, 1,3,6,7-tetrahydroxyxanthone], for which, in data set [1], the AUCNTR/AUCMGF was less than 3% and the Cmax is less than 0.003 µg/mL. Besides, the inhibition at 120 min, 100 µM on UGT1A1 was found to be 50.8%. For the same compound, the IC50 at UGT1A3 (4-MU glucuronidation, Probit analysis, read-out: IC50 towards UGT1A3) stood at 8.2 µM. Further, the “inhibition type towards UGT1A3” value at UGT1A3 (Dixon plot and Lineweaver-Burk plot) was “competitively inhibited”. Also, the inhibition at 120 min, 100 µM at UGT1A3 was found to be 87.6%. At UGT1A3 (second plot of Lineweaver-Burk slopes, read-out: inhibition constant (Ki) towards UGT1A3), the Ki came out at 1.6 µM.
As to `O=c1c2cc(O)c(O)cc2oc2cc(O)c([C@@H]3O[C@H](CO)[C@@H](O)[C@H](O)[C@H]3O)c(O)c12` [MGF, 1,3,6,7-tetrahydroxyxanthone-C-2-β-D-glucoside], in data set [1], the Cmax was 0.20258 µg/mL. The figures for the inhibition at 120 min, 100 µM at UGT1A1 and at UGT1A3 were 14.5% and -16%, respectively.
